The results in this text go back to ChEMBL document CHEMBL3991601, “The target landscape of clinical kinase drugs” (Science, 2017).

Assay [1] has as its target Cyclin-dependent kinase 18 (Homo sapiens, UniProt Q07002).
In assay [2] the target is T1, Dual specificity mitogen-activated protein kinase kinase 4 (Homo sapiens, UniProt P45985).
T1 sequence (P45985 whole entry): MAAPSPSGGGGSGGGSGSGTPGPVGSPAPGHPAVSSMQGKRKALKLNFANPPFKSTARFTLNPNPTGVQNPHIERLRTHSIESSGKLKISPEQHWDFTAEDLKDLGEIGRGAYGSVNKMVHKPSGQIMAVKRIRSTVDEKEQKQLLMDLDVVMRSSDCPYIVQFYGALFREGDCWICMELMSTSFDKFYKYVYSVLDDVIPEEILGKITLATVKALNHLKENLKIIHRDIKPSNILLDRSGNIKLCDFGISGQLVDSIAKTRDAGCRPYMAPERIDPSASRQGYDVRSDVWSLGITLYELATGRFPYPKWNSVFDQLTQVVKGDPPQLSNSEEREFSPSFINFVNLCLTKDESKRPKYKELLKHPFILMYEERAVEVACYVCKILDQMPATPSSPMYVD

The target of assay [3] is Dual specificity tyrosine-phosphorylation-regulated kinase 1B (Homo sapiens, UniProt Q9Y463).
Assay [4] addresses Activin receptor type-1-like (Homo sapiens, UniProt P37023).
The target of assay [5] is Tyrosine-protein kinase JAK2 (Homo sapiens, UniProt O60674).
In assay [6] the target is ALK tyrosine kinase receptor (Homo sapiens, UniProt Q9UM73). It counts as subcellular, K-562, COLO 205, SK-N-BE(2) and MV-4-11, Cell lysate. The settings on record: read-out: Kd apparent.
The target in assay [7] is Ras-related C3 botulinum toxin substrate 1 (Homo sapiens, UniProt P63000).
Assay [8] addresses Nucleoside diphosphate kinase B (Homo sapiens, UniProt P22392).
In assay [9] the target is T2, General transcription and DNA repair factor IIH helicase subunit XPD (Homo sapiens, UniProt P18074).
T2 sequence (P18074 whole entry): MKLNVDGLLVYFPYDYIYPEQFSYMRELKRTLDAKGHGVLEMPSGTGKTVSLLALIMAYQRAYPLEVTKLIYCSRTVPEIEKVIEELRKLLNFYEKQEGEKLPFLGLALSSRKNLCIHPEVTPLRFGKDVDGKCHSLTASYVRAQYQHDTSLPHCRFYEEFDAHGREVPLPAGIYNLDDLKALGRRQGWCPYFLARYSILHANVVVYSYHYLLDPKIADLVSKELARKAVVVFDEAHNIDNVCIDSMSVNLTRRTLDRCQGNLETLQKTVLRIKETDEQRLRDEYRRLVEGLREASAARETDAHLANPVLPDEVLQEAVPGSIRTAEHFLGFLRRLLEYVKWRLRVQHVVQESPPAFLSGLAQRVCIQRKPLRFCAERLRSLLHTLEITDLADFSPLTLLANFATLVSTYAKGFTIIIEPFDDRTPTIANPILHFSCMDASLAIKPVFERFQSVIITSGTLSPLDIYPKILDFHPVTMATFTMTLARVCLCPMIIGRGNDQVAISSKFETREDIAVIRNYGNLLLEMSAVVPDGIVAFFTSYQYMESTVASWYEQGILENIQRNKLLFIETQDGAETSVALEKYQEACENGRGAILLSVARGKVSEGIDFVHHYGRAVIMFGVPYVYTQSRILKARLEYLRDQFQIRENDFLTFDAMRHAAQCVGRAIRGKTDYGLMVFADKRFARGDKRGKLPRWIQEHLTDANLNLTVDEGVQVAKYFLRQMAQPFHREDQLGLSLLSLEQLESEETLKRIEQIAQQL

For assay [10], the target named is 5'-AMP-activated protein kinase subunit gamma-1 (Homo sapiens, UniProt P54619).
Assay [11] has as its target T3, Uncharacterized protein FLJ45252 (Homo sapiens, UniProt Q6ZSR9).
T3 sequence (Q6ZSR9 whole entry): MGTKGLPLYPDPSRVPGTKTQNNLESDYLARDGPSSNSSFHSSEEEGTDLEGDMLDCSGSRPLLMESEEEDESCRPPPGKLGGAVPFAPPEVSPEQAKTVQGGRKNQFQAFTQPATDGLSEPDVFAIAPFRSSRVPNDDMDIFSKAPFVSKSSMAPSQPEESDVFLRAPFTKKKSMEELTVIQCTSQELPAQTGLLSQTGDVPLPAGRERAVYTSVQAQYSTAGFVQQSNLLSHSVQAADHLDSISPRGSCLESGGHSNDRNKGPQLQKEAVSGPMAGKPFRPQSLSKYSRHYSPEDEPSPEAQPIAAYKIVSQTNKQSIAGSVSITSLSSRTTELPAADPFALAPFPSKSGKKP

Structures are written as SMILES. Active and inactive are the calls of the source.
Further: in the data inactive means no Kd found up to 30 µM.

Chain of Activin receptor type-1-like (P37023 whole entry): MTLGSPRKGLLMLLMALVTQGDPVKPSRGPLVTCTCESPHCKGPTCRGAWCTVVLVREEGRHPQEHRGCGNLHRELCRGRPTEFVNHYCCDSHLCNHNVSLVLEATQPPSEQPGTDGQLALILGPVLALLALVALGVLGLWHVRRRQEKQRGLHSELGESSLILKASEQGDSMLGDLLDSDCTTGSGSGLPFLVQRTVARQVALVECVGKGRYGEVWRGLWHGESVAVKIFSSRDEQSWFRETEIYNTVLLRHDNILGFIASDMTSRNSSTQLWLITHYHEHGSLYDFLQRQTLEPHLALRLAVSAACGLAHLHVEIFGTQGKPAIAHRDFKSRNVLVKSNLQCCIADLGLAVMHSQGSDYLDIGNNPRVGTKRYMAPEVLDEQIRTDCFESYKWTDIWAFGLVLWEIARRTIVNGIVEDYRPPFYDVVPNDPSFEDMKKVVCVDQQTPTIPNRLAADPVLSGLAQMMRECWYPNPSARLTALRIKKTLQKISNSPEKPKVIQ
Chain of ALK tyrosine kinase receptor (Q9UM73 whole entry): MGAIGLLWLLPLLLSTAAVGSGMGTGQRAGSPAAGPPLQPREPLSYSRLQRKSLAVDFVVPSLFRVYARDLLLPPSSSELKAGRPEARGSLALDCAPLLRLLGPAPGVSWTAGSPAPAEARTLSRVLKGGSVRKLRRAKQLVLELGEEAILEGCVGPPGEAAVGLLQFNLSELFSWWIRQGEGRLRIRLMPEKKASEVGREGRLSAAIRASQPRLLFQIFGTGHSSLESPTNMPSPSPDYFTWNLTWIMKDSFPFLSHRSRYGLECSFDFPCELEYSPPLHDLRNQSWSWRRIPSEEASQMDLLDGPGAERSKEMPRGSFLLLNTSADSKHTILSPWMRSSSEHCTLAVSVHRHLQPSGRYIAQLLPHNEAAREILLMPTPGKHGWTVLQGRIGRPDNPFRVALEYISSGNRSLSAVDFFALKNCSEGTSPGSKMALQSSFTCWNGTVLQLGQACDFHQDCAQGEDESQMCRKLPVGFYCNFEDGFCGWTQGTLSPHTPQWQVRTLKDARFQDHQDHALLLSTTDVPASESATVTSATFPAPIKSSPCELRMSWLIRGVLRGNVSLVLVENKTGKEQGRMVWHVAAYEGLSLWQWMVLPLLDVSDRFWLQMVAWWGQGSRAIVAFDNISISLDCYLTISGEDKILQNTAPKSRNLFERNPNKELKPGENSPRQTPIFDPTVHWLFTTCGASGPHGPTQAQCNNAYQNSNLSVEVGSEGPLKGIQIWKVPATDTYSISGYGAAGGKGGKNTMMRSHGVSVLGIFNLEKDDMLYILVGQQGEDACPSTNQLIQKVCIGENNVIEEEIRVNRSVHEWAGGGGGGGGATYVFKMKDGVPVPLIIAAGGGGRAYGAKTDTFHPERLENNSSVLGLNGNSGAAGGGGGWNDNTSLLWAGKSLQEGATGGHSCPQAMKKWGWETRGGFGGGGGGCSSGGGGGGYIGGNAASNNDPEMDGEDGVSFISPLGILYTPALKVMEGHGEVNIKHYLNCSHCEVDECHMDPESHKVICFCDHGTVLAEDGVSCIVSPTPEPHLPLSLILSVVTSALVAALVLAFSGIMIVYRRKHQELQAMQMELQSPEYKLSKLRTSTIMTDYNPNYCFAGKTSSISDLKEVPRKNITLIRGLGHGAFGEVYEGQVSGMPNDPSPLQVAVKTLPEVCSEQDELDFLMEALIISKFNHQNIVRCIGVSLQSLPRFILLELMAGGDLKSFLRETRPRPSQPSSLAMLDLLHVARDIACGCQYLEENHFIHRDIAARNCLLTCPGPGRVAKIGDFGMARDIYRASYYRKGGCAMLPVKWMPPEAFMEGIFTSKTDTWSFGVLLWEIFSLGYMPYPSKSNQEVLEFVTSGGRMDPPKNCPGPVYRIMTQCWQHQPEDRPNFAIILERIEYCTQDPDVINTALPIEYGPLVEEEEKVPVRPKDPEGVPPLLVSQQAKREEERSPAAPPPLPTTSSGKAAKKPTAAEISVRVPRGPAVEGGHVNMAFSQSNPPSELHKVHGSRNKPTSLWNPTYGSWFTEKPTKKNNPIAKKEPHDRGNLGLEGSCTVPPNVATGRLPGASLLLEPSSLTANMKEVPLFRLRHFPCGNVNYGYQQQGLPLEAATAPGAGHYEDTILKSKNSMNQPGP
Chain of Dual specificity tyrosine-phosphorylation-regulated kinase 1B (Q9Y463 whole entry): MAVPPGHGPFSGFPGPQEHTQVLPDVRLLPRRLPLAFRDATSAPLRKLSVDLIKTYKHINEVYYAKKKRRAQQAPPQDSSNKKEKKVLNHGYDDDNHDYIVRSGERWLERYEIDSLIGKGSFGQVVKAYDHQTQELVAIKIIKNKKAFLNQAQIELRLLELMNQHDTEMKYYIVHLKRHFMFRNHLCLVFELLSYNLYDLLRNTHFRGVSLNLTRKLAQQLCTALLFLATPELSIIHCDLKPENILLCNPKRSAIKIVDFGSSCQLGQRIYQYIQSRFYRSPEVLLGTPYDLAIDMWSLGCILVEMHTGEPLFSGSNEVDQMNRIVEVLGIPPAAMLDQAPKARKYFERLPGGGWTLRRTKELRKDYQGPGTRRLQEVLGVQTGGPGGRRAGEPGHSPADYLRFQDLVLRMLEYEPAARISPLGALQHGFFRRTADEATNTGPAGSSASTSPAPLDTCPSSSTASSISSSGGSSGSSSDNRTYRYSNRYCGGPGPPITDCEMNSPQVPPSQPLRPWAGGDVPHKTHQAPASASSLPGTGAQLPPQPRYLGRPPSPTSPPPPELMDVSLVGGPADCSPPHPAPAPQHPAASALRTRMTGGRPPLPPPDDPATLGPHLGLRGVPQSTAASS
Chain of Tyrosine-protein kinase JAK2 (O60674 whole entry): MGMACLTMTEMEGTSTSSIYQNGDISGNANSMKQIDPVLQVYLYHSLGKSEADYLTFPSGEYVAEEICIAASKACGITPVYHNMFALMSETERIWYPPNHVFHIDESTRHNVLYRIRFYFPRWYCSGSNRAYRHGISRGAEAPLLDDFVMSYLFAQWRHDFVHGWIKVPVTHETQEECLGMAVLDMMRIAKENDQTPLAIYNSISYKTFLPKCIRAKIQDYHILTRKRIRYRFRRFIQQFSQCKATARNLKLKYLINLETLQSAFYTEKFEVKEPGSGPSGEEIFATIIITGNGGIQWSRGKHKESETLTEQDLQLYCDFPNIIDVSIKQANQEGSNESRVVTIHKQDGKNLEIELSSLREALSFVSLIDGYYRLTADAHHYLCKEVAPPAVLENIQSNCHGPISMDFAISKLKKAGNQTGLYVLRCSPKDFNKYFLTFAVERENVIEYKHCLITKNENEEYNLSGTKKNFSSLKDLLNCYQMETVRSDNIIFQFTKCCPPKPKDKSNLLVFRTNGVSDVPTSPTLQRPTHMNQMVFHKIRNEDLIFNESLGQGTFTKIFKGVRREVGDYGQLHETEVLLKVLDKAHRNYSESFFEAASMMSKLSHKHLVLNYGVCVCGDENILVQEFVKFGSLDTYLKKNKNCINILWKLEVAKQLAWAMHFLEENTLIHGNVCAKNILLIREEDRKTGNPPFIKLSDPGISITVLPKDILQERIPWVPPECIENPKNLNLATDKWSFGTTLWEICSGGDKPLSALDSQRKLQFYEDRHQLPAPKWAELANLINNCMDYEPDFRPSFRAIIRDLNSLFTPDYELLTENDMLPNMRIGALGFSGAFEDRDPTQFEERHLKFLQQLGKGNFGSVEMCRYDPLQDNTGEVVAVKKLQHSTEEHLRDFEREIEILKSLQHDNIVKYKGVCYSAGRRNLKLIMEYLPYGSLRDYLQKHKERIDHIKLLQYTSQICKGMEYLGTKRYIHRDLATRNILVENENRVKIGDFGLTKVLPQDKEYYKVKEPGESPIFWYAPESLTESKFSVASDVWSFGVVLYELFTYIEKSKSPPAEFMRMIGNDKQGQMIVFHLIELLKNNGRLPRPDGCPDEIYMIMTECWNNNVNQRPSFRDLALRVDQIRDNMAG
Chain of Cyclin-dependent kinase 18 (Q07002 whole entry): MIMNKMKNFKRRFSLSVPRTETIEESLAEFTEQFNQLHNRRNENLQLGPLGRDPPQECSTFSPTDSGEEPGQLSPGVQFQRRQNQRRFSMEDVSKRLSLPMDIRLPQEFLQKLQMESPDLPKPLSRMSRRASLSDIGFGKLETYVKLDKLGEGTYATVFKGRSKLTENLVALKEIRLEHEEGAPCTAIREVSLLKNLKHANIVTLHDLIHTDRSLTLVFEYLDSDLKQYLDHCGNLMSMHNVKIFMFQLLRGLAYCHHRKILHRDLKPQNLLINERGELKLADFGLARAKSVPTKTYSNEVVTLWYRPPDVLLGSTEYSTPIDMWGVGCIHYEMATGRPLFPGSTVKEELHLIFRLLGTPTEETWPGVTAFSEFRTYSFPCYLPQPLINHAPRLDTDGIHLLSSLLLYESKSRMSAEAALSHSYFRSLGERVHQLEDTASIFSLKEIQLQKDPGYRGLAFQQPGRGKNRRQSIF
Chain of 5'-AMP-activated protein kinase subunit gamma-1 (P54619 whole entry): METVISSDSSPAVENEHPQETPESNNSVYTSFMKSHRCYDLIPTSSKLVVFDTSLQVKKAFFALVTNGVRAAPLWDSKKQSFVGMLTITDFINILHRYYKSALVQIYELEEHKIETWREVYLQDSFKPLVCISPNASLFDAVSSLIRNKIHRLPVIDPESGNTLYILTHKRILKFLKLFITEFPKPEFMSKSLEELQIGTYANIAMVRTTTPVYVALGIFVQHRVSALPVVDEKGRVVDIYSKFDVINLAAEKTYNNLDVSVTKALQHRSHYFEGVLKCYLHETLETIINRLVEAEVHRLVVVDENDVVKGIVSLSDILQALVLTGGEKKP
Chain of Nucleoside diphosphate kinase B (P22392 whole entry): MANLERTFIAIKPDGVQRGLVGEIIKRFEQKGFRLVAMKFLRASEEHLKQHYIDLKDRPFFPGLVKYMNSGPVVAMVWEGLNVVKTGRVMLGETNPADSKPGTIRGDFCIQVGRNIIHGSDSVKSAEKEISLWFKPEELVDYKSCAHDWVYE

For the compound `C=CCn1c(=O)c2cnc(Nc3ccc(N4CCN(C)CC4)cc3)nc2n1-c1cccc(C(C)(C)O)n1` [ADAVOSERTIB], the Kd in assay [1] is > 30 µM (inactive).
Take `COc1cc2ncnc(Nc3ccc(F)c(Cl)c3)c2cc1NC(=O)/C=C/CN1CCCCC1` [DACOMITINIB ANHYDROUS]: the Kd in assay [2] was > 30 µM (inactive).
Regarding `COCCN1CCN(Cc2ccc(-c3n[nH]c4c3C(=O)c3c(NC(=O)NN5CCOCC5)cccc3-4)cc2)CC1` [RGB-286638], the Kd in [3] was > 30 µM (inactive).
As for `O=C(NOC[C@H](O)CO)c1ccc(F)c(F)c1Nc1ccc(I)cc1F` [MIRDAMETINIB], the Kd in [4], in [5] and in [2] was > 30 µM (inactive) throughout.
In the case of `CNC(=O)c1cccc(-c2ccc3c(N4CCOC[C@@H]4C)nc(N4CCOC[C@@H]4C)nc3n2)c1` [VISTUSERTIB], the Kd in [4], in assay [3] and in assay [5] was > 30 µM (inactive) in each case.
Turning to `COc1cc2nccc(Oc3ccc(NC(=O)C4(C(=O)Nc5ccc(F)cc5)CC4)cc3)c2cc1OC` [CABOZANTINIB], the Kd in assay [6], in assay [3] and in assay [5] was > 30 µM (inactive) throughout.
Consider `Cc1cc(Nc2nc(N[C@@H](C)c3ncc(F)cn3)ncc2Cl)n[nH]1` [AZD-1480], for which the Kd in [5] and in assay [2] was > 30 µM (inactive) throughout.
Regarding `O=C(Nc1ccc(OC(F)(F)F)cc1)c1sccc1NCc1ccnc2ccccc12` [OSI-930], the Kd in [1] was > 30 µM (inactive).
Take `CN1CCN(c2nc(C3=C(c4c[nH]c5ccccc45)C(=O)NC3=O)c3ccccc3n2)CC1` [SOTRASTAURIN]: the Kd in assay [6] and in assay [7] was > 30 µM (inactive) each time.
`CNC(=O)c1ccc(Nc2ncc(C(F)(F)F)c(NCc3nccnc3N(C)S(C)(=O)=O)n2)cc1` [DEFACTINIB]: the Kd in [1] and in assay [3] was > 30 µM (inactive) throughout.
Take `Cc1c(Cn2c(C)nc3c(C(=O)O)cc(N4CCOCC4)cc32)cccc1C(F)(F)F` [GSK-2636771]: the Kd in [1], in assay [2] and in [7] was > 30 µM (inactive) throughout.
For the compound `Cn1cc(-c2[nH]c3cc(NC(=O)[C@H](N)C4CCCCC4)cc4c3c2C=NNC4=O)cn1`, in assay [6], the Kd is > 30 µM (inactive).
For the compound `C[C@@H]1COC(Nc2ccc3ncnc(Nc4ccc(OCc5nccs5)c(Cl)c4)c3c2)=N1` [VARLITINIB], the Kd in assay [6] and in assay [2] was > 30 µM (inactive) each time.
With `CCc1cc2c(cc1N1CCC(N3CCOCC3)CC1)C(C)(C)c1[nH]c3cc(C#N)ccc3c1C2=O` [ALECTINIB], the Kd in assay [1] and in [3] was > 30 µM (inactive) each time.
Consider `C#Cc1cccc(Nc2ncnc3cc4c(cc23)OCCOCCOCCO4)c1` [ICOTINIB], for which the Kd in assay [1], in [3] and in assay [2] was > 30 µM (inactive) each time.
Take `CC1(COc2ccc3c(c2)ncn3-c2ccc3cccc(N4CCC(N)CC4)c3n2)COC1` [CRENOLANIB]: the Kd in assay [5] and in assay [2] was > 30 µM (inactive) in each case.
As to `Cn1c(=O)c(F)c(Nc2ccc(I)cc2F)c2c(=O)n(C[C@@H](O)CO)cnc21` [TAK-733], the Kd in assay [5], in assay [2] and in [8] was > 30 µM (inactive) each time.
With `CCOc1ccn(-c2ccc(F)cc2)c(=O)c1C(=O)Nc1ccc(Oc2ccnc(N)c2Cl)c(F)c1` [BMS-777607], the Kd in assay [9], in [10] and in [11] was > 30 µM (inactive) each time.
As for `COc1ccc2c(OCc3nnc4ccc(-c5ccccc5)nn34)ccnc2c1` [AMG-208], the Kd in assay [4], in assay [3], in assay [5] and in assay [2] was > 30 µM (inactive) each time.
For `Cc1cc(-c2cc(OC(=O)c3ccccc3)ccc2Cl)cc2nnc(Nc3ccc(OCCN4CCCC4)cc3)nc12` [TG100-801], the Kd in assay [3], in [5] and in assay [2] was > 30 µM (inactive) in each case.
On to `O=C(NC[C@H](O)CO)c1ccncc1Nc1ccc(I)cc1F` [PIMASERTIB], for which the Kd in assay [6], in assay [5] and in [2] was > 30 µM (inactive) in each case.
Take `c1cc(OCCN2CCCCC2)cc(-c2n[nH]c3ccc(-c4nc[nH]n4)cc23)c1` [CC-401]: the Kd in [1] was > 30 µM (inactive).
Take `CC(C)(O)CC(=O)NCCn1ccc2ncnc(Nc3ccc(Oc4cccc(C(F)(F)F)c4)c(Cl)c3)c21` [TAK-285]: the Kd in [1] and in [2] was > 30 µM (inactive) in each case.
Take `COc1cc2ncnc(Nc3ccc(O)cc3)c2cc1OC` [WHI-P131]: the Kd in assay [6] and in assay [2] was > 30 µM (inactive) each time.
Take `CNC(=O)c1cc(COc2nnc(Nc3ccc(Cl)cc3)c3ccoc23)ccn1` [TELATINIB]: in assay [6], the Kd was > 30 µM (inactive).
Take `COc1cccc(Nc2ncnn3ccc(CN4CC[C@@H](N)[C@H](O)C4)c23)c1` [BMS-690514]: the Kd in [2] is > 30 µM (inactive).
With `S=C(NCc1ccc2c(c1)OCO2)N1CCN(c2ncnc3c2oc2ccccc23)CC1` [AMUVATINIB], the Kd in assay [2] was > 30 µM (inactive).
In the case of `COc1cc(F)c(F)c(Nc2ccc(I)cc2F)c1NS(=O)(=O)C1(C[C@H](O)CO)CC1` [REFAMETINIB], the Kd in assay [7] was > 30 µM (inactive).
For `Cc1ccc(C(=O)Nc2ccc(Oc3cc4cnn(C)c4cc3-c3cn[nH]c3)c(F)c2)c(=O)n1-c1ccc(F)cc1` [MERESTINIB], the Kd in [2] is > 30 µM (inactive).
With `COc1cc(Nc2ncc(F)c(Nc3ccc4c(n3)N(COP(=O)(O)O)C(=O)C(C)(C)O4)n2)cc(OC)c1OC` [FOSTAMATINIB], the Kd in assay [3], in assay [5] and in assay [2] was > 30 µM (inactive) in each case.
Take `O=S(=O)(c1cccc2cnccc12)N1CCCNCC1` [FASUDIL]: in [7], the Kd was > 30 µM (inactive).
On the same count and under the same terms, next, `NC[C@@](O)(c1ccc(Cl)cc1)c1ccc(-c2cn[nH]c2)cc1` [AT-13148]: > 30 µM (inactive).
In the case of `O=S(=O)(c1cccc2c(O)nccc12)N1CCCNCC1` [HYDROXYFASUDIL], the Kd in [5] and in [2] was > 30 µM (inactive) throughout.
For `CCc1nc(C(N)=O)c(Nc2ccc(N3CCC(N4CCN(C)CC4)CC3)c(OC)c2)nc1NC1CCOCC1` [GILTERITINIB], in assay [7], the Kd is > 30 µM (inactive).
On to `Cc1c(NC(=O)OC[C@@H]2COCCN2)cn2ncnc(Nc3ccc4c(cnn4Cc4cccc(F)c4)c3)c12` [AC-480], for which the Kd in assay [4] was > 30 µM (inactive).
For `O[C@H]1CC[C@H](Nc2ncc3nc(Nc4c(F)cc(F)cc4F)n([C@H]4CCOC4)c3n2)CC1` [TANZISERTIB], the Kd in [6] and in [3] was > 30 µM (inactive) each time.
Turning to `C[C@]1(O)C[C@@H](c2nc(-c3ccc4ccc(-c5ccccc5)nc4c3)c3c(N)nccn32)C1` [LINSITINIB], the Kd in assay [4] and in [2] was > 30 µM (inactive) each time.
